# Assay results from patent US20070122830A1, “Prohibitin-directed diagnostics and therapeutics for cancer and chemotherapeutic drug resistance” (Aurelium BioPharma Inc., priority 2005, published 2007).
# Key:
# prohibitin = assay: Prohibitin silencing by siRNA in SKOV3 cells, anti-prohibitin immunoblot; type: cell-based, human; conditions: for decrease in prohibitin: FIG. 7
# Description: To establish the importance of prohibitin to the expression of the drug-resistant phenotype in MDA cell lines, prohibitin expression was silenced using RNAi. Briefly, the following siRNA duplexes targeting the human prohibitin mRNA were designed and purchased either from Ambion (Austin, Tex.) or Invitrogen (Carlsbad, Calif.). The siRNA duplex sequences corresponding to nucleotides 425 through 443 (GenBank SEQ ID NUMBER: U49725.1) targeting the start of the prohibitin mRNA transcript were:
# For a typical siRNA transfection, 1 nmole of the annealed siRNA duplex was mixed with 1.4 ml of Opti-MEM reagent (Invitrogen). In another tube, […] of Oligofectamine reagent (Invitrogen, Carlsbad, Calif.) was mixed with […] of Opti-MEM. The two solutions were combined and mixed gently by inversion and incubated for 20 min. at RT. The resulting solution was added to the cultured cells drop by drop in a 10 cm dish (cells are approximately 40-50% confluent). The next day the transfected cells were trypsinized and seeded in 6 or 96-well plates and further incubated for the indicated amount of time (assay dependent) before further analysis.
# Targeted silencing of prohibitin was performed as described in Example 2 above.
# MCF-7/ADR xenografts = assay: Mammary adenocarcinoma xenografts in nude mice, prohibitin siRNA plus chemotherapy; type: in vivo
# Procedure: (§1) In further studies, the efficacy of a prohibitin-targeted therapeutic in treating mammary adenocarcinoma cells (MCF-7/AR) is assessed. Briefly, male […] nude mice 5 to 7 weeks old, weighing 18 g to 22 g, are used for the MCF-7/ADR xenografts. Mice receive a subcutaneous (s.c.) injection of the cells using 5×10^5 cells/inoculation under the shoulder. […] The animal's weight is measured every 4 days. Tumor growth starting on the first day of treatment is measured and the volume of the xenograft is monitored every 4 days. The mice are anaesthetized and sacrificed when the mean tumor weight is over 1 g in the control group. Tumor tissue is excised from the mice and its weight is measured. Tumor weights from mice treated with the prohibitin siRNA and chemotherapeutic drugs are compared to tumor weights from mice treated with control siRNA and chemotherapeutic drugs. Cell counts are compared. All experiments are performed in triplicate.
# as §1, with “treating a” for “treating”, “(MCF-7)” for “(MCF-7/AR)”, “an s.c.” for “a subcutaneous (s.c.)”, “drugs.” for “drugs. Cell counts are compared. All experiments are performed in triplicate.”
# In further studies, the efficacy of a prohibitin-targeted therapeutic in treating a mammary adenocarcinoma cells (MCF-7) is assessed. Briefly, male […] nude mice 5 to 7 weeks old, weighing 18 g to 22 g, are used for the MCF-7/ADR xenografts. Mice receive an s.c. injection of the cells using […] cells/inoculation under the shoulder.
# Liposome formulations are produced as described previously (Shi et al. (2000) Proc. Natl. Acad. Sci. USA. 97(13): 7567-7572). Briefly, POPC ([…]), DDAB (0.2 μmol), DSPE-PEG 2000 (0.6 μmol), and DSPE-PEG 2000-maleimide (30 nmol) are dissolved in chloroform/methanol (2:1, vol:vol) […] a brief period of evaporation. The lipids are dispersed in 1 ml 0.05 M Tris-HCl buffer, pH 8.0, and are sonicated for 10 min. Prohibitin siRNA is added to the lipids. The liposome/siRNA dispersion is evaporated to a final concentration of 200 mM at a volume of 100 μl. The dispersion is frozen in ethanol/dry ice for 4 to 5 min. The dispersion is then thawed at 40° C. for 1 min. to 2 min., and this freeze-thaw cycle is repeated 10 times. The liposome dispersion is diluted to a lipid concentration of 40 mM, is followed by extrusion 10 times each through two stacks each of 400 nm, 200 nm, 100 nm, and 50 nm pore size polycarbonate membranes, by using a hand held extruder (Avestin, Ottawa). The mean vesicle diameters are determined by quasielastic light scattering using a Microtrac Ultrafine Particle Analyzer (Leeds-Northrup, St. Petersburg, Fla.).
# The animal's weight is measured every 4 days. Tumor growth starting on the first day of treatment is measured and the volume of the xenograft is monitored every 4 days. The mice are anaesthetized and sacrificed when the mean tumor weight is over 1 g in the control group. Tumor tissue is excised from the mice and its weight is measured. Tumor weights from mice treated with the prohibitin siRNA and chemotherapeutic drugs are compared to tumor weights from mice treated with control siRNA and chemotherapeutic drugs.
# In further studies, the efficacy of a prohibitin-targeted therapeutic in treating a mammary adenocarcinoma cells (MCF-7) is assessed. […]
# [1] = Example 10, siRNA/liposome formulation
# [2] = Example 11, siRNA/immunoliposome formulation
substance,measurement,setting,value
"prohibitin siRNA: siRNA duplex to human prohibitin mRNA nt 425-443; sense 5′-GGAAGUGGUCUGUCUGUUAtt-3′, antisense 5′-UAACAGACAGACCACUUCCtt-3′ (sense GGAAGUGGUCUGUCUGUUATT; antisense UAACAGACAGACCACUUCCTT; chemistry not given here)",repeat of prohibitin silencing,prohibitin; FIG. 8,"confirmed, albeit with increased prohibitin expression"
same,decrease in prohibitin,prohibitin; six days after treatment,71%
same,decrease in prohibitin,prohibitin; three days after treatment,~93%
same,total cell numbers of tumors vs control siRNA,"MCF-7/ADR xenografts; Example 8, MCF-7/AR cells",lower
same,tumor weight vs control siRNA,"MCF-7/ADR xenografts; Example 8, MCF-7/AR cells",smaller tumors by weight
same,total cell number in tumors vs control siRNA,"MCF-7/ADR xenografts; Example 9, MCF-7",lower
same,tumor weight vs control siRNA,"MCF-7/ADR xenografts; Example 9, MCF-7",smaller tumors by weight
same,total cell number in tumors vs control siRNA,MCF-7/ADR xenografts; [1],lower
same,tumor weight vs control siRNA,MCF-7/ADR xenografts; [1],smaller tumors by weight
same,total cell number in tumors vs control siRNA,MCF-7/ADR xenografts; [2],lower
same,tumor weight vs control siRNA,MCF-7/ADR xenografts; [2],smaller tumors by weight
